# Measured values as given in patent publication US8993752B2, “Neprilysin inhibitors” (Theravance Biopharma R&D IP, LLC, priority 2011, dated 2015).
# Target: T1, human NEP (Homo sapiens, UniProt P08473)
# T1 construct: purchased R&D Systems, Minneapolis, Minn; 1182-ZN
# Assay: In vitro enzyme inhibition assay at human NEP (fluorogenic peptide substrate)
# Format: biochemical
# Conditions: recombinant human NEP; substrate Mca-D-Arg-Arg-Leu-Dap-(Dnp)-OH 10 μM; 37° C.; values given as ranges
# Procedure: The inhibitory activities of compounds at human and rat neprilysin (EC 3.4.24.11; NEP) and human angiotensin converting enzyme (ACE) were determined using in vitro assays as described below.
# Recombinant human NEP and recombinant human ACE were obtained commercially (R&D Systems, Minneapolis, Minn., catalog numbers 1182-ZN and 929-ZN, respectively). The fluorogenic peptide substrate Mca-D-Arg-Arg-Leu-Dap-(Dnp)-OH (Medeiros et al. (1997) Braz. J. Med. Biol. Res. 30:1157-62; Anaspec, San Jose, Calif.) and Abz-Phe-Arg-Lys(Dnp)-Pro-OH (Araujo et al. (2000) Biochemistry 39:8519-8525; Bachem, Torrance, Calif.) were used in the NEP and ACE assays respectively.
# The assays were performed in 384-well white opaque plates at 37° C. using the fluorogenic peptide substrates at a concentration of 10 μM in Assay Buffer (NEP: 50 mM HEPES, pH 7.5, 100 mM NaCl, 0.01% polyethylene glycol sorbitan monolaurate (Tween-20), 10 μM ZnSO4; ACE: 50 mM HEPES, pH 7.5, 100 mM NaCl, 0.01% Tween-20, 1 μM ZnSO4).
# Test compounds were assayed over the range of concentrations from 10 μM to 20 pM. Test compounds were added to the enzymes and incubated for 30 minute at 37° C. prior to initiating the reaction by the addition of substrate. Reactions were terminated after 20 minutes of incubation at 37° C. by the addition of glacial acetic acid to a final concentration of 3.6% (v/v).
# Plates were read on a fluorometer with excitation and emission wavelengths set to 320 nm and 405 nm, respectively Inhibition constants were obtained by nonlinear regression of the data using the equation (GraphPad Software, Inc., San Diego, Calif.): v=v0/[1+(I/K′)] where v is the reaction rate, v0 is the uninhibited reaction rate, I is the inhibitor concentration and K′ is the apparent inhibition constant.
# Compounds of the invention were tested in this assay and found to have pKi values at human NEP as follows.
# T1 sequence (P08473 whole entry): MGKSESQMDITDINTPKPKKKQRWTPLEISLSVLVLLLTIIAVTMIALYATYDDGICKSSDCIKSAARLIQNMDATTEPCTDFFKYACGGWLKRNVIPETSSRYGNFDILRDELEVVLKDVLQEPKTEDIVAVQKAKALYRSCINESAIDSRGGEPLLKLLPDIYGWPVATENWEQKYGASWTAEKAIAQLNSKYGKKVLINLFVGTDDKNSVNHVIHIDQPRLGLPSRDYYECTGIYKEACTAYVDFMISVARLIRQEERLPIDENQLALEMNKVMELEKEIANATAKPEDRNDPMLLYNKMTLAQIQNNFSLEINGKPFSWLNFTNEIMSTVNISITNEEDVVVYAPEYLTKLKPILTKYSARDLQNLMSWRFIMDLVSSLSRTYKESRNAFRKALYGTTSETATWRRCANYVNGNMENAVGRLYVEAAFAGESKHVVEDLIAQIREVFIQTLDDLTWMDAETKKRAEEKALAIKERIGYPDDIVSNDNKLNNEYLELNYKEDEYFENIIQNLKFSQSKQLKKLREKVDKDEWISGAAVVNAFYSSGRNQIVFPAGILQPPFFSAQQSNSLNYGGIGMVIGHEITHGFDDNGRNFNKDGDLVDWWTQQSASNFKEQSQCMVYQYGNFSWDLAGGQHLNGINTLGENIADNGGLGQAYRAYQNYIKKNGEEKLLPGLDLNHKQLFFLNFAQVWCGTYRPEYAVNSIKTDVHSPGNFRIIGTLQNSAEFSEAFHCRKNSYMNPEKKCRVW
row,SMILES,pKi values at human NEP
1,CN(C)C(=O)c1cc(C(=O)N[C@H](Cc2ccccc2Cl)[C@@H](O)C(=O)O)n[nH]1 [Example 2-54],8.0-8.9

# Same assay, conditions: recombinant human NEP; substrate Mca-D-Arg-Arg-Leu-Dap-(Dnp)-OH 10 μM; 37° C.; values given as ranges; read-out: pKi values at human NEP (converted)
row,Ki,SMILES
1,≤ 0.001 µM,"O=C(N[C@H](Cc1ccccc1Cl)[C@@H](O)C(=O)O)c1cc(C(=O)O)n(Cc2ccc(Br)cc2)n1 [Example 2-41, 2-(4-Bromo-benzyl)-5-[(1R,2R)-2-carboxy-1-(2-chloro-benzyl)-2-hydroxy-ethylcarbamoyl]-2H-pyrazole-3-carboxylic acid]"
2,0.00126 to 0.01 µM,"O=C(N[C@H](Cc1ccccc1Cl)[C@@H](O)C(=O)O)c1cc(C(=O)O)n(Cc2c(F)cc(F)cc2F)n1 [Example 2-42, 5-[(1R,2R)-2-Carboxy-1-(2-chloro-benzyl)-2-hydroxy-ethylcarbamoyl]-2-(2,4,6-trifluoro-benzyl)-2H-pyrazole-3-carboxylic acid]"
3,0.00126 to 0.01 µM,"Cc1cccc(C)c1Cn1nc(C(=O)N[C@H](Cc2ccccc2Cl)[C@@H](O)C(=O)O)cc1C(=O)O [Example 2-43, 5-[(1R,2R)-2-Carboxy-1-(2-chloro-benzyl)-2-hydroxy-ethylcarbamoyl]-2-(2,6-dimethyl-benzyl)-2H-pyrazole-3-carboxylic acid]"
4,0.00126 to 0.01 µM,"O=C(N[C@H](Cc1ccccc1Cl)[C@@H](O)C(=O)O)c1cc(C(=O)O)n(Cc2c(F)cccc2F)n1 [Example 2-44, 5-[(1R,2R)-2-Carboxy-1-(2-chloro-benzyl)-2-hydroxy-ethylcarbamoyl]-2-(2,6-difluoro-benzyl)-2H-pyrazole-3-carboxylic acid]"
5,0.00126 to 0.01 µM,"O=C(N[C@H](Cc1ccccc1Cl)[C@@H](O)C(=O)O)c1cc(-c2ccccc2Cl)[nH]n1 [Example 2-48, (2R,3R)-4-(2-Chloro-phenyl)-3-{[5-(2-chloro-phenyl)-1H-pyrazole-3-carbonyl]-amino}-2-hydroxy-butyric acid]"
6,0.0126 to 0.1 µM,"O=C(N[C@H](Cc1ccccc1Cl)[C@@H](O)C(=O)O)c1cc(-c2ccc(-c3ccccc3)cc2)[nH]n1 [Example 2-49, (2R,3R)-3-[(5-Biphenyl-4-yl-1H-pyrazole-3-carbonyl)-amino]-4-(2-chloro-phenyl)-2-hydroxy-butyric acid]"
7,0.0126 to 0.1 µM,"O=C(N[C@H](Cc1ccccc1Cl)[C@@H](O)C(=O)O)c1cc(-c2ccccc2O)[nH]n1 [Example 2-50, (2R,3R)-4-(2-Chloro-phenyl)-2-hydroxy-3-{[5-(2-hydroxy-phenyl)-1H-pyrazole-3-carbonyl]-amino}-butyric acid]"
8,0.0126 to 0.1 µM,"O=C(N[C@H](Cc1ccccc1Cl)[C@@H](O)C(=O)O)c1cc(-c2ccco2)[nH]n1 [Example 2-52, (2R,3R)-4-(2-Chloro-phenyl)-3-[(5-furan-2-yl-1H-pyrazole-3-carbonyl)-amino]-2-hydroxy-butyric acid]"
9,0.0126 to 0.1 µM,"O=C(N[C@H](Cc1ccccc1Cl)[C@@H](O)C(=O)O)c1cc(C(=O)N2CCOCC2)[nH]n1 [Example 2-55, (2R,3R)-4-(2-Chloro-phenyl)-2-hydroxy-3-{[5-(morpholine-4-carbonyl)-1H-pyrazole-3-carbonyl]-amino}-butyric acid]"
10,0.0126 to 0.1 µM,"O=C(N[C@H](Cc1ccccc1Cl)[C@@H](O)C(=O)O)c1cc(NC(=O)c2ccccc2Cl)[nH]n1 [Example 2-57, (2R,3R)-3-{[5-(2-Chloro-benzoylamino)-1H-pyrazole-3-carbonyl]-amino}-4-(2-chloro-phenyl)-2-hydroxy-butyric acid]"
11,0.0126 to 0.1 µM,"O=C(N[C@H](Cc1ccccc1Cl)[C@@H](O)C(=O)O)c1cc(C(=O)O)n(CCc2ccccc2)n1 [Example 2-59, 5-[(1R,2R)-2-Carboxy-1-(2-chloro-benzyl)-2-hydroxy-ethylcarbamoyl]-2-phenethyl-2H-pyrazole-3-carboxylic acid]"
12,0.0126 to 0.1 µM,"CC(c1ccccc1)n1nc(C(=O)N[C@H](Cc2ccccc2Cl)[C@@H](O)C(=O)O)cc1C(=O)O (stereo partly drawn) [Example 2-60, 5-[(1R,2R)-2-Carboxy-1-(2-chloro-benzyl)-2-hydroxy-ethylcarbamoyl]-2-(1-phenyl-ethyl)-2H-pyrazole-3-carboxylic acid]"
13,≤ 0.001 µM,"CCOc1ncc(Cn2nc(C(=O)N[C@H](Cc3ccccc3Cl)[C@@H](O)C(=O)O)cc2C(=O)O)cn1 [Example 2-62, 5-[(1R,2R)-2-Carboxy-1-(2-chloro-benzyl)-2-hydroxy-ethylcarbamoyl]-2-(2-ethoxy-pyrimidin-5-ylmethyl)-2H-pyrazole-3-carboxylic acid]"
14,0.0126 to 0.1 µM,"O=C(N[C@H](Cc1ccccc1Cl)[C@@H](O)C(=O)O)c1cc(-c2ccccc2Cl)n(-c2ccc(Cl)cc2Cl)n1 [Example 2-64, (2R,3R)-4-(2-Chloro-phenyl)-3-{[5-(2-chloro-phenyl)-1-(2,4-dichloro-phenyl)-1H-pyrazole-3-carbonyl]-amino}-2-hydroxy-butyric acid]"
15,0.0126 to 0.1 µM,"O=C(N[C@H](Cc1ccccc1Cl)[C@@H](O)C(=O)O)c1cc(O)n(Cc2ccc(Cl)cc2F)n1 [Example 2-67, (2R,3R)-3-{[1-(4-Chloro-2-fluoro-benzyl)-5-hydroxy-1H-pyrazole-3-carbonyl]-amino}-4-(2-chloro-phenyl)-2-hydroxy-butyric acid]"
16,0.0126 to 0.1 µM,"COc1ccc(Cn2nc(C(=O)N[C@H](Cc3ccccc3Cl)[C@@H](O)C(=O)O)cc2O)c(F)c1F [Example 2-68, (2R,3R)-4-(2-Chloro-phenyl)-3-{[1-(2,3-difluoro-4-methoxy-benzyl)-5-hydroxy-1H-pyrazole-3-carbonyl]-amino}-2-hydroxy-butyric acid]"

# The remaining lines, values behind:
row,SMILES,Ki
1,"O=C(N[C@H](Cc1ccccc1Cl)[C@@H](O)C(=O)O)c1cc(C(=O)O)[nH]n1 [Example 2-45, 5-[(1R,2R)-2-Carboxy-1-(2-chloro-benzyl)-2-hydroxy-ethylcarbamoyl]-2H-pyrazole-3-carboxylic acid]",0.00126 to 0.01 µM
2,"CC(=O)Nc1cccc(-c2cc(C(=O)N[C@H](Cc3ccccc3Cl)[C@@H](O)C(=O)O)n[nH]2)c1 [Example 2-47, (2R,3R)-3-{[5-(3-Acetylamino-phenyl)-1H-pyrazole-3-carbonyl]-amino}-4-(2-chloro-phenyl)-2-hydroxy-butyric acid]",0.0126 to 0.1 µM
3,"O=C(N[C@H](Cc1ccccc1Cl)[C@@H](O)C(=O)O)c1cc(-c2cnccn2)[nH]n1 [Example 2-51, (2R,3R)-4-(2-Chloro-phenyl)-2-hydroxy-3-[(5-pyrazin-2-yl-1H-pyrazole-3-carbonyl)-amino]-butyric acid]",0.0126 to 0.1 µM
4,"O=C(N[C@H](Cc1ccccc1Cl)[C@@H](O)C(=O)O)c1cc(-c2ccc3ccccc3c2)[nH]n1 [Example 2-53, (2R,3R)-4-(2-Chloro-phenyl)-2-hydroxy-3-[(5-naphthalen-2-yl-1H-pyrazole-3-carbonyl)-amino]-butyric acid]",0.0126 to 0.1 µM
5,"CC(C)CN(C)C(=O)c1cc(C(=O)N[C@H](Cc2ccccc2Cl)[C@@H](O)C(=O)O)n[nH]1 [Example 2-56, (2R,3R)-4-(2-Chloro-phenyl)-2-hydroxy-3-{[5-(isobutyl-methyl-carbamoyl)-1H-pyrazole-3-carbonyl]-amino}-butyric acid]",0.0126 to 0.1 µM
6,"Cn1nc(C(=O)N[C@H](Cc2ccccc2Cl)[C@@H](O)C(=O)O)cc1-c1ccccc1 [Example 2-58, (2R,3R)-4-(2-Chloro-phenyl)-2-hydroxy-3-[(1-methyl-5-phenyl-1H-pyrazole-3-carbonyl)-amino]-butyric acid]",0.0126 to 0.1 µM
7,"Cc1cc(Cn2nc(C(=O)N[C@H](Cc3ccccc3Cl)[C@@H](O)C(=O)O)cc2C(=O)O)no1 [Example 2-61, 5-[(1R,2R)-2-Carboxy-1-(2-chloro-benzyl)-2-hydroxy-ethylcarbamoyl]-2-(5-methyl-isoxazol-3-ylmethyl)-2H-pyrazole-3-carboxylic acid]",0.00126 to 0.01 µM
8,"O=C(N[C@H](Cc1ccccc1Cl)[C@@H](O)C(=O)O)c1cc(-c2ccccc2Cl)n(-c2ccc(Cl)c(Cl)c2)n1 [Example 2-63, (2R,3R)-4-(2-Chloro-phenyl)-3-{[5-(2-chloro-phenyl)-1-(3,4-dichloro-phenyl)-1H-pyrazole-3-carbonyl]-amino}-2-hydroxy-butyric acid]",0.0126 to 0.1 µM
9,"COc1ccc(Cn2ccc(C(=O)N[C@H](Cc3ccccc3Cl)[C@@H](O)C(=O)O)n2)c(F)c1F [Example 2-65, (2R,3R)-4-(2-Chloro-phenyl)-3-{[1-(2,3-difluoro-4-methoxy-benzyl)-1H-pyrazole-3-carbonyl]-amino}-2-hydroxy-butyric acid]",0.00126 to 0.01 µM
10,"COc1ccc(Cn2ccc(C(=O)N[C@H](Cc3ccccc3Cl)[C@@H](O)C(=O)O)n2)c(F)c1 [Example 2-66, (2R,3R)-4-(2-Chloro-phenyl)-3-{[1-(2-fluoro-4-methoxy-benzyl)-1H-pyrazole-3-carbonyl]-amino}-2-hydroxy-butyric acid]",0.00126 to 0.01 µM
